These results are taken from patent US11066369B2, “N-(pyridin-2-yl)pyridine-sulfonamide derivatives and their use in the treatment of disease” (Novartis AG, priority 2016, dated 2021).

One test has as its target T1, delF508-CFTR (Homo sapiens, UniProt P13569, DEL508-508).
T1 construct: functional activity of the CFTR channel (Chloride ion transport) in patient derived primary human bronchial epithelial cells; host or cells: patient-derived primary human bronchial epithelial cells (delF508-CFTR)
Nature of the test: Measurement of delF508-CFTR functional activity in primary human bronchial epithelial cells (HBECs) using Multi-Transepithelial Clamp Circuit (MTECC-24) assay. The format is cell-based. To be noted: primary CF HBECs; for MTECC24 CFHBEC- Amax %: test compound added 24h before assay plus potentiator, relative to reference combination (2 μM corrector + 0.5 μM potentiator); for pEC50: test compound added 24h before assay, in the presence of potentiator, mean of at least two replicates, read-out: MTECC24 CFHBEC- EC50. An excerpt: [formula] Measurement of delF508-CFTR Functional Activity in Primary Human Bronchial Epithelial Cells (HBECs) Using Multi-Transepithelial Clamp Circuit (MTECC-24) Assay
This assay measures the functional activity of the CFTR channel (Chloride ion transport) in patient derived primary human bronchial epithelial cells with forskolin activation and in the presence of the CFTR corrector/potentiator combo.
Primary human delF508-CFTR bronchial epithelial cells were purchased from Asterand and cultured according to previously established methods (Fulcher et al. (2005) Methods Mol Med 107: 183-206). Briefly, vendor supplied cells were rapidly defrosted and added to a T175 flask in 50 mL growth media (Lonza BEBM media with Lonza BEGM singlequots). Media was replaced after 24h and then cells were fed every other day until cells were 80-90% confluent, at which point cells were cryopreserved. These P1 vials were thawed at 37° C. as needed and added to T175 flasks in 50 mL growth media at 5×10^5 cells/flask. Media was replaced after 24h, and then cells were fed every other day until 80-90% confluent. Cells were lifted with 5 mL accutase at 37° C. for 5 minutes, centrifuged at 1000 rpms for 5 min (300 g), and resuspended in differentiation media (50% BEBM in DMEM, BEGM singlequots, all trans retinoic acid (5×10^−8M)). Cells were then counted and cell suspension was added to collagen coated inserts at 3×10^4 cells/insert in 0.15 mL with 0.5 mL differentiation media on the basolateral side.
Apical and basolateral media were replaced on alternate days, and following day 7 (or when confluent plus 2 days), air liquid interface was established for approximately two weeks by removal of apical media. One day prior to use on the MTECC24 system (EP-Devices, EP Design, Belgium), 0.15 mL of warmed (37° C.) PBS was added to the apical surface of the cultures and returned to humidifier (37° C., 5% CO2 incubator) for 30 min before aspirating the apical surface to remove any mucus.
Compound treatments were then prepared. Compound dilutions, typically a 10 point concentration response with 1 in 3 dilution steps, were made in 100% DMSO before dilution 1 in 1000 into differentiation medium with a final DMSO concentration of 0.1% or 0.2% for the study. Compound containing medium was then transferred into the wells of a 24 well plate at 0.5 mL per well and warmed for 30 min in a 37° C. incubator prior to transferring washed inserts into the compound containing plates. Cells were incubated in compound containing medium (basolateral only) for 24h prior to measurement in the MTECC24 system.
Following 24 hr treatment, compound dilutions were prepared again, diluted 1 in 1000 into 37° C. assay medium (F-12 Coon's modified, 20 mM HEPES pH7.4 with TRIS Base, No FCS or bicarbonate). Cells which were treated for 24h with test compound were then transferred into plates containing 0.75 mL compound treatment in assay medium (basolateral) and 0.25 mL of the compound containing assay medium was added to the apical surface. The plates were then transferred to the heated plate compartments of the MTECC24 system for 45 min prior to measurements (this can also be done in a non-CO2 37° C. humidified incubator). Basolateral temperature should not exceed 36.5° C. and apical temperature should be approximately 35.5° C.
Modulators were added sequentially as follows while the MTECC24 instrument recorded the equivalent short circuit current (Ieq):
Prior to dilution into F-12 medium the stocks are as follows:
Amiloride stock is 10 mM in H2O
Forskolin Stock is 10 mM in 100% DMSO
(S)-3-amino-6-methoxy-N-(3,3,3-trifluoro-2-hydroxy-2-methylpropyl)-5-(trifluoromethyl)picolinamide is 0.5 mM stock in 100% DMSO
INH-172 (4-[[4-Oxo-2-thioxo-3-[3-trifluoromethyl)phenyl]-5-thiazolidinylidene]methyl]benzoic acid) stock is 30 mM in 100% DMSO
The data was normalized using the median signal from wells treated with 0.1% DMSO as a baseline. […]

For test [1], the target named is T2, horseradish peroxidase (HRP) tagged delF508-CFTR (Homo sapiens, UniProt P13569, DEL508-508).
T2 construct: expressed in transfected cells
As to the kind of experiment: Measurement of delF508-CFTR-HRP surface expression in CFBE41o- cells.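 As to DelF508-CFTR-HRP Amax %: percent efficacy relative to reference corrector lumacaftor.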 The format is cell-based. The conditions noted are these: CFBE41o- cells; for Emax: read-out: DelF508-CFTR-HRP Amax %; for pEC50: read-out: DelF508-CFTR-HRP EC50. A digest of the protocol:
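CFBE41o- bronchial epithelial cells stably expressing delF508-CFTR with HRP in the fourth extracellular loop; expression induced 48h with 500 ng/mL doxycycline, then compounds added (top 10 μM, 10-point 3-fold series, ≤0.5% DMSO) for 24h at 37° C. Surface HRP measured by luminescence with cell-impermeant substrate; EC50 from logistic fit of triplicates, plate-normalized to lowest concentration; efficacy also relative to a reference corrector.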

The mark [2] stands for this setting: delF508-CFTR-HRP surface expression.
[3] abbreviates: mean of at least two replicates.

pEC50: −log10 of the molar value. Structures can show the parent of a compound that is named as a salt. Where two headings read alike, the source gives them in different places.

T1 sequence (P13569 with tags, fused parts or gaps DEL508-508): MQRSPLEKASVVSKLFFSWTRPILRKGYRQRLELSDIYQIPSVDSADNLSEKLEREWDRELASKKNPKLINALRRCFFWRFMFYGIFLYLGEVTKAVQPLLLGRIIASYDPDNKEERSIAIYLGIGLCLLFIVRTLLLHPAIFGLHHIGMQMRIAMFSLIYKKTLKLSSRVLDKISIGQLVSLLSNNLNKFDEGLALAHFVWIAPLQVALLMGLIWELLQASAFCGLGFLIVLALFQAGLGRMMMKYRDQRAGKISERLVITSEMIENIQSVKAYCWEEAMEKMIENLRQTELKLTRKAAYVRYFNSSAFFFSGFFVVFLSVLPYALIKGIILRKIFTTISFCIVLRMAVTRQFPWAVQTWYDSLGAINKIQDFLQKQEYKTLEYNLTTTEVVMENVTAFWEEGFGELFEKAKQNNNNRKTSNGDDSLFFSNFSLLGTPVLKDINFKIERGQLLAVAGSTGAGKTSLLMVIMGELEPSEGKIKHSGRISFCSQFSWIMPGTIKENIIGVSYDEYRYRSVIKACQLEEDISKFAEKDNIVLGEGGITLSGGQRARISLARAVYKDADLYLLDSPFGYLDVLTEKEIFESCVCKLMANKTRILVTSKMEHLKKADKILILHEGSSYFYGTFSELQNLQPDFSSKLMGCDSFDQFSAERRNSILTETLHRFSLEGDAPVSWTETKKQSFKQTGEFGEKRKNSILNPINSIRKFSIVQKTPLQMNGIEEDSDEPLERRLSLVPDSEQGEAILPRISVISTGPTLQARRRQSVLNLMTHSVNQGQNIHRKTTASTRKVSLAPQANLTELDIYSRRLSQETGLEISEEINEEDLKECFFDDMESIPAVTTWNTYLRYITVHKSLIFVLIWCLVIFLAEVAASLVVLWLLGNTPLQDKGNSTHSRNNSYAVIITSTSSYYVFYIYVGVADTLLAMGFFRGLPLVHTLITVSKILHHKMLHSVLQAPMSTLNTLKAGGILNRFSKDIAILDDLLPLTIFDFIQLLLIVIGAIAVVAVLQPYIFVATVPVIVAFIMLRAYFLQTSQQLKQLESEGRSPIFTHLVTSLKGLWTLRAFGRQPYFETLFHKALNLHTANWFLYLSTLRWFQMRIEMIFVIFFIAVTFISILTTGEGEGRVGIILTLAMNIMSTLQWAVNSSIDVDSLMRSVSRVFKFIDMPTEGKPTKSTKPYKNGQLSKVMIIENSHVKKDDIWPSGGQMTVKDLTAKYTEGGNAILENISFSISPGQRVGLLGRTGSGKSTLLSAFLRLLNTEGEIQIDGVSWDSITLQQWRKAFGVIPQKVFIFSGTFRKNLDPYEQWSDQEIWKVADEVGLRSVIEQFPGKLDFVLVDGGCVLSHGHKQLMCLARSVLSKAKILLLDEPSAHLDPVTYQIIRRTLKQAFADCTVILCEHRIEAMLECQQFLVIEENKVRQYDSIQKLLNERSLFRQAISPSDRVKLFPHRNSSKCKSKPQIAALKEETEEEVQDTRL
T2 sequence (P13569 with tags, fused parts or gaps DEL508-508): as above

On to `Cc1cccc(C)c1-c1nc(NS(=O)(=O)c2cccc(N3CCNCC3)n2)ccc1Cl` [Example 163, N-(5-chloro-6-(2,6-dimethylphenyl)pyridin-2-yl)-6-(piperazin-1-yl)pyridine-2-sulfonamide Hydrochloride], for which, at delF508-CFTR, the “MTECC24 CFHBEC- Amax %” value stood at 64.8% and the negative logarithm of the EC50 (pEC50) was 7.23. Further, in test [1] (setting [2]), the Emax worked out at 305% and the negative logarithm of the EC50 (pEC50) is 5.50.
For `Cc1ccccc1-c1nc(NS(=O)(=O)c2cccc(N3CC[C@@H](N)[C@@H](F)C3)n2)ccc1C(F)(F)F` [Example 111, 6-((3S,4R)-4-amino-3-fluoropiperidin-1-yl)-N-(6-(o-tolyl)-5-(trifluoromethyl)pyridin-2-yl)pyridine-2-sulfonamide Hydrochloride], on delF508-CFTR, the “MTECC24 CFHBEC- Amax %” value stood at 59.5% and the negative logarithm of the EC50 (pEC50) is 7.50.
Turning to `COc1ccc(NS(=O)(=O)c2cccc(N3CCC[C@@](C)(C(=O)O)C3)n2)nc1-c1ccccc1C1CC1` [Example 408, (R)-1-(6-(N-(6-(2-cyclopropylphenyl)-5-methoxypyridin-2-yl)sulfamoyl)pyridin-2-yl)-3-methylpiperidine-3-carboxylic Acid], the pEC50 in test [1] (setting [3]) was 5.70. For the same compound, in test [1] (surface expression Amax), the Emax was 271%.
`Cc1ccc(F)cc1-c1nc(NS(=O)(=O)c2cccc(N3CCCC4(CC4C(=O)O)C3)n2)ccc1C(F)(F)F` (stereo not shown) [Example 439, 5-(6-(N-(6-(5-fluoro-2-methylphenyl)-5-(trifluoromethyl)pyridin-2-yl)sulfamoyl)pyridin-2-yl)-5-azaspiro[2.5]octane-1-carboxylic Acid]: the pEC50 in test [1] (setting [3]) is 5.65. Also, the Emax in test [1] (surface expression Amax) came out at 264%.
For `CCCc1ccccc1-c1nc(NS(=O)(=O)c2cccc(N3CCC[C@](C)(C(=O)O)C3)n2)ccc1C(F)(F)F` [Example 425, (S)-3-methyl-1-(6-(N-(6-(2-propylphenyl)-5-(trifluoromethyl)pyridin-2-yl)sulfamoyl)pyridin-2-yl)piperidine-3-carboxylic Acid], the pEC50 in test [1] (setting [3]) is 5.91.
`COc1ccc(NS(=O)(=O)c2cccc(N3CCC[C@@](C)(C(=O)O)C3)n2)nc1-c1ccccc1C` [Example 410, (R)-1-(6-(N-(5-methoxy-6-(o-tolyl)pyridin-2-yl)sulfamoyl)pyridin-2-yl)-3-methylpiperidine-3-carboxylic Acid]: in test [1] (setting [3]), the pEC50 is 5.72. For the same compound, in test [1] (surface expression Amax), the Emax was found to be 210%.
Regarding `COC(=O)C1(O)CCN(c2cccc(S(=O)(=O)Nc3ccc(Cl)c(-c4c(C)cccc4C)n3)n2)CC1` [Example 260, methyl 1-(6-{[5-chloro-6-(2,6-dimethylphenyl)pyridin-2-yl]sulfamoyl}pyridin-2-yl)-4-hydroxypiperidine-4-carboxylate], in test [1] (setting [2]), the Emax worked out at 59.8% and the negative logarithm of the EC50 (pEC50) was 5.42.
The like results for `Cc1ccccc1-c1nc(NS(=O)(=O)c2cccc(N3CCN(C(=O)OC(C)(C)C)C[C@H]3C(=O)O)n2)ccc1C(F)(F)F` [Example 350, (2S)-4-[(tert-butoxy)carbonyl]-1-(6-{[6-(2-methylphenyl)-5-(trifluoromethyl)pyridin-2-yl]sulfamoyl}pyridin-2-yl)piperazine-2-carboxylic Acid] were, in that order, 232% and 5.72.
With `CO[C@H]1CNCC[C@H]1Nc1cccc(S(=O)(=O)Nc2ccc(C(F)(F)F)c(-c3ccccc3C)n2)n1` (racemic) [Example 115, 6-(((3S,4R)-3-methoxypiperidin-4-yl)amino)-N-(6-(o-tolyl)-5-(trifluoromethyl)pyridin-2-yl)pyridine-2-sulfonamide Hydrochloride], in test [1] (setting [2]), the Emax worked out at 192% and the pEC50 was 5.42.
The corresponding values for `Cc1cccc(C)c1-c1nc(NS(=O)(=O)c2cccc(N)n2)ccc1F` [Example 9, 6-amino-N-(6-(2,6-dimethylphenyl)-5-fluoropyridin-2-yl)pyridine-2-sulfonamide] are 597% and 5.82.
In the case of `Nc1cccc(S(=O)(=O)Nc2ccc(Cl)c(-c3ccccc3C3CC3)n2)n1` [Example 19, 6-amino-N-(5-chloro-6-(2-cyclopropylphenyl)pyridin-2-yl)pyridine-2-sulfonamide], in test [1] (setting [2]), the Emax came out at 501% and the pEC50 was 5.89.
With `Cc1cccc(C)c1-c1cccc(NS(=O)(=O)c2cccc(N)n2)n1` [Example 68, 6-amino-N-(6-(2,6-dimethylphenyl)pyridin-2-yl)pyridine-2-sulfonamide], in test [1] (setting [2]), the Emax was determined as 209% and the pEC50 is 5.62.
Take `Nc1cccc(S(=O)(=O)Nc2ccc(Cl)c(-c3cc(F)ccc3C3CC3)n2)n1` [Example 21, 6-amino-N-(5-chloro-6-(2-cyclopropyl-5-fluorophenyl)pyridin-2-yl)pyridine-2-sulfonamide]: in test [1] (setting [2]), the Emax is 493% and the pEC50 is 5.87.
The corresponding values for `Cc1cccc(F)c1-c1nc(NS(=O)(=O)c2ccc(N)nc2)ccc1Cl` [Example 60, 6-amino-N-(5-chloro-6-(2-fluoro-6-methylphenyl)pyridin-2-yl)pyridine-3-sulfonamide] are 253% and 5.53.
Regarding `CCCC1(C(=O)O)CCCN(c2cccc(S(=O)(=O)Nc3ccc(C(F)(F)F)c(-c4ccccc4C)n3)n2)C1` (stereo not shown) [Example 458, 3-propyl-1-(6-(N-(6-(o-tolyl)-5-(trifluoromethyl)pyridin-2-yl)sulfamoyl)pyridin-2-yl)piperidine-3-carboxylic Acid], the pEC50 in test [1] (setting [3]) was 5.80. In test [1] (surface expression Amax), the Emax was determined as 639%.
In the case of `CC(C)c1ccccc1-c1nc(NS(=O)(=O)c2cccc(N)n2)ccc1Cl` [Example 50, 6-amino-N-(5-chloro-6-(2-isopropylphenyl)pyridin-2-yl)pyridine-2-sulfonamide], in test [1] (setting [2]), the Emax was 332% and the negative-log EC50 (pEC50) was 6.17.
In the case of `CCc1ccccc1-c1nc(NS(=O)(=O)c2cccc(N3CCC[C@@](C)(C(=O)O)C3)n2)ccc1Cl` [Example 393, (R)-1-(6-(N-(5-chloro-6-(2-ethylphenyl)pyridin-2-yl)sulfamoyl)pyridin-2-yl)-3-methylpiperidine-3-carboxylic Acid], the negative-log EC50 (pEC50) in test [1] (setting [3]) is 5.98. For the same compound, the Emax in test [1] (surface expression Amax) was found to be 680%.
Regarding `Cc1cc(F)ccc1-c1nc(NS(=O)(=O)c2cccc(N)n2)ccc1Cl` [Example 37, 6-amino-N-(5-chloro-6-(4-fluoro-2-methylphenyl)pyridin-2-yl)pyridine-2-sulfonamide], in test [1] (setting [2]), the Emax stood at 386% and the negative logarithm of the EC50 (pEC50) was 5.64.

The term pEC50 denotes the negative decadic logarithm of the EC50, by convention in mol/L.
